Like-named read-outs stand apart in the source and are kept apart here.
Tests used:
M^pro = settings: read-out: IC50 M^pro; cited from earlier work
SARS-CoV-2 = assay: microbe, parasite or virus in culture; format: cell-based
in vitro [1] = settings: human, Caco-2
SARS-CoV-2 M^pro [2] = target: T1, SARS-CoV-2 M^pro (Severe acute respiratory syndrome coronavirus 2, UniProt P0DTD1); assay: In vitro FRET enzymatic assay (screening at 1 µM and SAR IC50); format: biochemical; settings: read-out: IC50 ± SEM
[3] = target: avi-tagged SARS-CoV-2 M^pro (Severe acute respiratory syndrome coronavirus 2, UniProt P0DTD1); format: binding
SARS-CoV-2 M^pro [4] = target: T1, SARS-CoV-2 M^pro; assay: Mpro protease activity assay (FRET, used for Table 1); format: biochemical
human cathepsin S = target: T2, human cathepsin S (Homo sapiens, UniProt P25774); assay: Counter assay screening, SensoLyte 440 cathepsin S kit; format: biochemical; settings: for Inhibitory activity against human Cathepsin S: concentrations 50 to 0.00085 µM; for IC50: tested up to 50 µM
T2 construct: purchased Anaspec, Inc. SensoLyte 440 cathepsin S Assay Kit (catalogue number not given)

[5] = human; for Metabolic stability: microsomes
[6] = mouse; for Metabolic stability: microsomes
in vitro [7] = settings: human, microsomes
in vitro [8] = settings: mouse, microsomes
[9] = 75 nM M^pro, 10 µM substrate, 11-point series from 50 µM

T2 sequence (P25774 115-331): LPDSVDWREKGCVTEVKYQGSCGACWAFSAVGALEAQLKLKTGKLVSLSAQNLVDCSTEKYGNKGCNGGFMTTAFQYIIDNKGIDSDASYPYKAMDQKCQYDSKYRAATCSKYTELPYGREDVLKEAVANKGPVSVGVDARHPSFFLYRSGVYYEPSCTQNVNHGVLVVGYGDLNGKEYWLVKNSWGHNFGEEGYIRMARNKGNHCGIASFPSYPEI

CC(C)C[C@H](NC(=O)OCc1ccccc1)C(=O)N[C@@H](CC1CCNC1=O)C(O)S(=O)(=O)O (stereo partly drawn) [GC376]
IC50 (M^pro): 150 nM

N#Cc1cc(C(=O)N[C@H](CC2CCC2)C(=O)N[C@H](CC(=O)N[C@H](Cc2ccncc2)C(=O)O)Cc2c[nH]c3ccccc23)ccn1 [MP1]
Protective effect on infected Calu-3 (CPE) (SARS-CoV-2): no protective effect | EC50 (SARS-CoV-2; Severe acute respiratory syndrome coronavirus 2, Calu-3, 48 h, read-out: EC50 inhibition of CPE development): 2300 nM | Papp A→B (in vitro [1]): 5.4 ×10⁻⁶ cm/s | Papp B→A (in vitro [1]): 2.5 ×10⁻⁶ cm/s

CCCC[C@@H](NC(=O)c1ccnc(C#N)c1)C(=O)N[C@H](CC(=O)N[C@H](Cc1ccncc1)C(=O)O)Cc1c[nH]c2ccccc12 [MP9]
IC50 (SARS-CoV-2 M^pro [2]): 139 ± 49 nM

CCCCC(NC(=O)CC(Cc1c[nH]c2ccccc12)NC(=O)C(Cc1ccccc1)NC(=O)c1ccnc(C#N)c1)C(=O)NC (stereo not drawn) [SLL07]
Enrichment score M^pro [3]: 135,654 | Enrichment score M^pro +GC376 [3]: 0 | IC50 (SARS-CoV-2 M^pro [4]; [9]): 140 nM | IC50 M^pro (SARS-CoV-2 M^pro [4]; off-DNA synthesized DECL hits): low nanomolar range | Inhibitory activity against human Cathepsin S (human cathepsin S): no inhibitory activity | IC50 (human cathepsin S): > 50000 nM

CNC(=O)[C@@H](CSCNC(C)=O)NC(=O)c1ccc2cncc(-c3ccc(Oc4ccccc4)nc3)c2n1 [SLL08]
Enrichment score M^pro [3]: 11,444 | Enrichment score M^pro +GC376 [3]: 676 | IC50 (SARS-CoV-2 M^pro [4]; [9]): > 50000 nM | Inhibitory activity against human Cathepsin S (human cathepsin S): no inhibitory activity | IC50 (human cathepsin S): > 50000 nM

CNC(=O)C(Cc1ccncc1)NC(=O)CC(Cc1c[nH]c2ccccc12)NC(=O)C(CC1CCC1)NC(=O)c1ccnc(C#N)c1 (stereo not drawn) [SLL11]
Enrichment score M^pro [3]: 515,485 | Enrichment score M^pro +GC376 [3]: 206,982 | IC50 (SARS-CoV-2 M^pro [4]; [9]): 30 nM | IC50 (SARS-CoV-2 M^pro [4]; off-DNA synthesized DECL hits): ≤ 30 nM | IC50 M^pro (SARS-CoV-2 M^pro [4]; off-DNA synthesized DECL hits): low nanomolar range | Inhibitory activity against human Cathepsin S (human cathepsin S): no inhibitory activity | IC50 (human cathepsin S): > 50000 nM | In vitro half time [5]: 10 min | Metabolic stability [5]: low metabolic stability | In vitro half time [6]: 9 min | Metabolic stability [6]: low metabolic stability | microsomal CLint (in vitro [7]): 139 µL/min/mg | microsomal CLint (in vitro [8]): 154 µL/min/mg

CCCC[C@@H](NC(=O)c1ccnc(C#N)c1)C(=O)N[C@H](CC(=O)N[C@H](Cc1ccncc1)C(=O)NC)Cc1c[nH]c2ccccc12 [SLL12]
Enrichment score M^pro [3]: 488,354 | Enrichment score M^pro +GC376 [3]: 0 | IC50 (SARS-CoV-2 M^pro [4]; [9]): 53 nM | IC50 M^pro (SARS-CoV-2 M^pro [4]; off-DNA synthesized DECL hits): low nanomolar range | Inhibitory activity against human Cathepsin S (human cathepsin S): no inhibitory activity | IC50 (human cathepsin S): > 50000 nM | In vitro half time [5]: 11 min | Metabolic stability [5]: low metabolic stability | In vitro half time [6]: 8 min | Metabolic stability [6]: low metabolic stability | microsomal CLint (in vitro [7]): 131 µL/min/mg | microsomal CLint (in vitro [8]): 170 µL/min/mg

Reference: PMC11459923, “Identification of novel and potent inhibitors of SARS-CoV-2 main protease from DNA-encoded chemical libraries” (Antimicrobial Agents and Chemotherapy, 2024)
